In US11542263B2 (NeuroCycle Therapeutics, Inc., priority 2018, dated 2023):
Where two headings read alike, the source gives them in different places.

Columns and labels:
[1] = Accelerated stability testing (HPLC assay and purity); assay type: physicochemical; settings: for Assay (%): assay criterion 95%-105%
Procedure: The stability of Phosphate Polymorphic Form and Free Base Polymorphic Form A were evaluated under accelerated conditions.
Appropriately 2 mg of compounds were accurately weighed into a glass vial, then added diluents (ACN/water, 50/50) and sonicated for 2 minutes to dilute the target concentration of 0.2 mg/mL. The solution was equilibrated to room temperature and then the purity of the compounds was determined by HPLC.

[2] = Solubility in aqueous buffers and simulated fluids, 24 h, HPLC; assay type: physicochemical; settings: for solubility at 24 h: 22.5 °C, thermodynamic from solid, read-out: Measured Conc. (solubility); for solubility at 24 h / Measured Conc. (solubility): ~24 h
Procedure: About 2 mg of test article was added to a 1.5 mL vials which contained ˜1.0 mL of one medium listed in Table 7 and Table 8, which was then sealed. The mixtures were stirred at ˜20-25° C. for ˜24 hours. After that, the mixture was filtered by 0.45 μm filter membrane and then the supernatant was analyzed by HPLC.

[3] = Intrinsic dissolution rate in SGF; assay type: physicochemical; settings: 37° C., 100 rpm, linear scope within 2 to 120 min
Procedure: About 100 mg of Free Base Polymorphic Form A or Phosphate Polymorphic Form A was weighed into the intrinsic dissolution apparatus and the sample compressed for 1 minute with a compression force of ˜4 MPa to form a compacted pellet within the stainless-steel die. All loose powder was removed from the surface of the die. The intrinsic dissolution shaft was connected with the stainless-steel die and tightened so only one surface of the pellet was exposed (surface area=0.496 cm^2). The shaft in the spindle was adjusted to ensure the exposed surface of the compacted tablet was ˜3.8 cm from the bottom of the vessel when lowered. The temperature of chamber water was set at 37° C.±0.5° C., the shaft rotation at 100 rpm and the sampling time points at 2, 5, 10, 15, 30, 45, 60, 120 min. SGF was used as dissolution medium (900 mL). At each time point, solution samples were filtered, and the supernatant was analyzed by HPLC-UV.

[4] = Pharmacokinetics in rats; assay type: in vivo, Sprague-dawley rats; settings: rat, mean
Procedure: To evaluate the pharmacokinetics (PK) of Phosphate Polymorphic Form A, suspensions or solutions were dosed by either oral gavage (0.5% methyl cellulose) or IV (60% PEG400/40% saline) in normal, healthy, male Sprague-dawley rats with serial blood collection focused on the first 48 hours of exposure. Rats were dosed with vehicle or test compounds at 1 mg/kg (IV) or 2 mg/kg (PO). Approximately 0.2 mL blood was collected at each time point. All blood samples were collected jugular vein puncture. All blood samples were transferred into plastic microcentrifuge tubes containing 5 μL of EDTA-K2 as anti-coagulant or pre-chilled commercial EDTA-K2 tubes and placed on wet ice until centrifugation. Harvested blood samples were centrifuged within 30 min of collection at 7,000 rpm for 10 minutes. The extracts were analyzed for compound concentration by LC/MS/MS. Data were analyzed with Phoenix WinNonlin 6.3 using the IV-Noncompartmental model 201 (IV bolus input) and PO-Noncompartmental model 200 (extravascular input) methods.

[5] = Canine pharmacokinetics; assay type: in vivo, Beagle dogs; settings: male, beagle, plasma, dog, mean
Procedure: To evaluate the pharmacokinetics (PK) Phosphate Polymorphic Form A, suspensions or solutions were dosed by either oral gavage (0.5% methyl cellulose) or IV (60% PEG400/40% saline) in normal, healthy, male Beagle dogs with serial blood collection focused on the first 48 hours of exposure. Dogs were dosed with vehicle or test compounds at 1 mg/kg (IV) or 2 mg/kg (PO). Approximately 0.5 mL blood was collected at each time point. All blood samples were collected from a peripheral vein. Blood was collected into commercially available tubes (Jiangsu Kangjian medical supplies co., LTD) containing Potassium (K2) EDTA*2H2O and placed on wet ice until processed for plasma. Samples were centrifuged (3,000×g for 10 minutes at 2 to 8° C.) within one hour of collection. The extracts were analyzed for compound concentration by LC/MS/MS. Data were analyzed with Phoenix WinNonlin 6.3 using the IV-Noncompartmental model 201 (IV bolus input) and PO-Noncompartmental model 200 (extravascular input) methods.

[6] = male, Sprague-Dawley, plasma, IV 1 mg/kg
[7] = male, Sprague-Dawley, plasma, PO 2 mg/kg

Purity (%) ([1]; 40° C./75% RH (open), 1 week): 99.02% | Assay (%) ([1]; 40° C./75% RH (open), 1 week): 97.12% | Purity (%) ([1]; 80° C. (open), 1 week): 98.94% | Assay (%) ([1]; 80° C. (open), 1 week): 95.99% | Purity (%) ([1]; Initial): 98.91% | Assay (%) ([1]; Initial): 104.60% | Purity (%) ([1]; Light, ~50 h): 97.55% | Assay (%) ([1]; Light, ~50 h): 95.25% | solubility at 24 h ([2]; aqueous buffer, pH 3.0 citrate buffer (100 mM), initial pH 3.05, LOQ: 0.1 μg/mL): 0.16 µg/mL | solubility at 24 h ([2]; pH 1.8, simulated gastric fluid, SGF, initial pH 1.80, ~20-25° C.): 3.85 µg/mL | solubility at 24 h ([2]; simulated gastric fluid, pH 1.2 Hydrochloric Acid Buffer (50 mM), initial pH 1.17, ~20-25° C.): 22.9 µg/mL | solubility at 24 h ([2]; FaSSIF, initial pH 6.51, ~20-25° C.): 7.14 µg/mL | solubility at 24 h ([2]; FeSSIF, initial pH 5.00, ~20-25° C.): 50.7 µg/mL | solubility at 24 h ([2]; Purified water, initial pH 7.02, ~20-25° C., target 2 mg/mL): 0.4 µg/mL | pH value of supernatant ([2]; FaSSIF, initial pH 6.51): 6.09 | pH value of supernatant ([2]; FeSSIF, initial pH 5.00): 4.94 | pH value of supernatant ([2]; Purified water, initial pH 7.02): 2.62 | pH value of supernatant ([2]; SGF, initial pH 1.80): 1.67 | solubility compared with Free Base Polymorphic Form A ([2]; in SGF, FaSSIF and FeSSIF): higher solubility | pH value of supernatant ([2]; pH 1.2 Hydrochloric Acid Buffer (50 mM), initial pH 1.17): 0.99 | pH value of supernatant ([2]; pH 3.0 citrate buffer (100 mM), initial pH 3.05): 2.96 | pH value of supernatant ([2]; pH 4.5 citrate buffer (100 mM), initial pH 4.44): 4.41 | Measured Conc. (solubility) ([2]; pH 4.5 citrate buffer (100 mM), initial pH 4.44, LOQ: 0.1 μg/mL): <LOQ | pH value of supernatant ([2]; pH 7.4 PBS (50 mM), initial pH 7.40): 7.09 | Measured Conc. (solubility) ([2]; pH 7.4 PBS (50 mM), initial pH 7.40, LOQ: 0.1 μg/mL): <LOQ | pH value of supernatant ([2]; pH 9.0 USP Buffer (50 mM), initial pH 8.94): 8.46 | Measured Conc. (solubility) ([2]; pH 9.0 USP Buffer (50 mM), initial pH 8.94, LOQ: 0.1 μg/mL): <LOQ | intrinsic dissolution rate [3]: 0.184 mg cm^−2 min^−1 | AUC(0-inf) [4, 6]: 12100 ng·h/mL | AUC(0-t) [4, 6]: 11300 ng·h/mL | clearance [4, 6]: 1.41 mL/min/kg | half-life [4, 6]: 12.4 h | Vd ([4]; male, Sprague-Dawley, plasma, IV 1 mg/kg, read-out: Vdss): 1.49 L/kg | AUC(0-inf) [4, 7]: 16000 ng·h/mL | AUC(0-t) [4, 7]: 15000 ng·h/mL | Cmax [4, 7]: 794 ng/mL | Tmax [4, 7]: 7 h | bioavailability [4, 7]: 66.1% | half-life [4, 7]: 11.1 h | AUCExtra ([4]; PO 2 mg/kg): 6.25% | AUC(0-inf) ([5]; IV 1 mg/kg): 9170 ng·h/mL | AUC(0-t) ([5]; IV 1 mg/kg): 7850 ng·h/mL | clearance ([5]; IV 1 mg/kg): 2.52 mL/min/kg | half-life ([5]; IV 1 mg/kg): 12.8 h | Vd ([5]; IV 1 mg/kg, read-out: Vdss): 1.93 L/kg | AUC(0-inf) ([5]; PO 2 mg/kg): 13900 ng·h/mL | AUC(0-t) ([5]; PO 2 mg/kg): 11700 ng·h/mL | Cmax ([5]; PO 2 mg/kg): 649 ng/mL | Tmax ([5]; PO 2 mg/kg): 3.33 h | bioavailability ([5]; PO 2 mg/kg): 74.7% | half-life ([5]; PO 2 mg/kg): 12.2 h
SMILES: CC(C)(O)c1cnn2c(-c3ccc(F)c(-c4c(F)cccc4C#N)c3)cnc2n1.O=P(O)(O)O [Phosphate Polymorphic Form A, 2′,6-difluoro-5′-[3-(1-hydroxy-1-methylethyl)-imidazo[1,2-b][1,2,4]triazin-7-yl]biphenyl-2-carbonitrile]
